In brackets after ≈: the same amount, converted by molar mass.
Assay: Solubility in water
Format: physicochemical

## Cc1ccccc1OCC(=O)N[C@@H](CC(C)C)C(=O)N[C@@H](Cc1ccc(OC(=O)N2CCC(C(N)=O)CC2)cc1)C(=O)O [Example 27, (2S)-3-[4-({[4-(Aminocarbonyl)-1-piperidinyl]carbonyl}oxy)phenyl]-2-[((2S)-4-methyl-2-{[2-(2-methylphenoxy)acetyl]amino}pentanoyl)amino]propanoic acid]
  solubility: 10 µg/mL (≈ 16.8 µM)

Reference: patent US6867192B1, “Compounds useful in the treatment of inflammatory diseases” (priority 1998, dated 2005)
